“Also recorded” adds a separate entry of the source. Like-named read-outs stand apart in the source and are kept apart here.
Legend:
[1] = tested on: PTHR-CFP3-loop and PTHR-YFPC-term; conditions: absence or presence of PTH 1 μM
A2A receptors = assay: 3H-NECA radioligand binding, adenosine receptor constructs in transiently transfected COS cells; set-up: species or system human
Description: FIG. 12: Pharmacological properties of the Adenosine receptor constructs. A-B) Comparison between the binding (A) and signalling properties (B) of several adenosine receptor constructs with their respective wild-type receptor in transiently transfected COS cells. Adenylylcyclases activity was determined in membranes from transiently transfected COS cells as previously published (Jakobs et al., J cyclic Nucleotide Res 2 (1976) 381-392, Klotz et al., Naunyn-Schmiedeberg's Arch Pharmacol 357 (1998) 1-9). […] Data are the mean±sd of at least 3 separate experiments.

α2AAR-cam [2] = target: T1, α2AAR-cam (Mus musculus, UniProt Q01338); format: cell-based
T1 construct: expressed in transfected cells; GIRK1 and GIRK4 co-transfected in A8)

PTHR-cam = target: T2, PTHR-cam (Homo sapiens, UniProt Q03431, INS395[…]); assay: FRET (ratio F*535/F*480) in single HEK293 cells expressing PTHR-cam; format: cell-based; conditions: intact HEK293 cells; PTH 1 μM, PTH(7-34) 3 μM
T2 construct: expressed in transfected cells

α2AAR-cam [3] = target: T1, α2AAR-cam; assay: FRET in neuronal PC-12 cells stably expressing α2AAR-cam, agonist versus inverse agonists; format: cell-based; conditions: 100 μM
Description: As documented in the appended examples, an illustrative recombinant α2A-adrenergic receptor (α2AAR-cam) was employed, whereby said α2A-adrenergic receptor (α2AAR-cam) comprises the two detectable labels YFP and CFP on the first intracellular loop and the third intracellular loop.
The α2AAR-cam receptors were stably expressed in the neuronal cell line PC-12. […] The signals were recorded before and after exposure to agonist (NA: noradrenaline, 100 μM) and two different inverse agonists (Yoh: yohimbine and Rau:rauwolscine, 100 μM).

α2AAR = target: T3, α2AAR (Mus musculus, UniProt Q01338); assay: Competition ligand binding, wild-type α2AAR stably expressed in HEK293 cells; conditions: read-out: noradrenaline affinity Ki
T3 construct: expressed in transfected cells
T3 sequence (Q01338 with tags, fused parts or gaps): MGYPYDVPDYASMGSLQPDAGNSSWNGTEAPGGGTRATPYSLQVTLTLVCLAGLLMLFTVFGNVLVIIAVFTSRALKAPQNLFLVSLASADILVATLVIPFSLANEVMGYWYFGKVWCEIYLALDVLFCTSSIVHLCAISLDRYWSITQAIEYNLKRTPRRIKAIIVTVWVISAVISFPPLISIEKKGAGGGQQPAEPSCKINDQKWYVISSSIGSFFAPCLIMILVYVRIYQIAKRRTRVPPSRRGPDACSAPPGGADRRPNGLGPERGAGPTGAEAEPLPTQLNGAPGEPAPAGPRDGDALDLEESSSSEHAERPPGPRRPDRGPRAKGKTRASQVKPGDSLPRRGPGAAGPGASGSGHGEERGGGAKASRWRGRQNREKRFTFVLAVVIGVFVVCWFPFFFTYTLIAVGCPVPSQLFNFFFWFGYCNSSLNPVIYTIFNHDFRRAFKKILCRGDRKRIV
Description: (§1) Pharmacology. Ligand binding, receptor number determination, cAMP assays, measurement of α2A-adrenergic receptor-activated GIRK currents and reconstitution of receptor-Go coupling were measured as previously described (Vilardaga, (2001) loc. cit.; Bünemann, J. Bio. Chem. 276 (2001), 47512-47517; Vilardaga, J. Biol. Chem. 277 (2002), 8121-8129; Richardson, J. Biol. Chem. 274 (1999), 13525-13533). Saturation and competition binding studies were analysed with the program Prism to calculate KD- and Ki-values.

α2AAR-cam [4] = target: T1, α2AAR-cam; assay: Competition ligand binding, α2AAR-cam stably expressed in HEK293 cells; conditions: read-out: noradrenaline affinity Ki
Description: as §1

α2AAR-cam [5] = target: T1, α2AAR-cam; assay: [3H]UK14304 binding to membranes containing α2AAR-cam with exogenous Go protein; conditions: for Kd: read-out: Kd of agonist binding
Description: Pharmacology. […] Saturation and competition binding studies were analysed with the program Prism to calculate KD- and Ki-values.
Third, binding of G-proteins to receptors is known to enhance formation of the active, agonist-bound state.

α2AAR-cam [6] = target: T1, α2AAR-cam; assay: FRET in membranes containing α2AAR-cam in the presence of Go proteins; format: biochemical
Description: Membrane preparation. Membrane fractions were obtained after two centrifugations at 4° C., first at 800×g for 10 min and the second at 100,000×g for 30 min. Membranes were treated with 6 M urea in 20 mM Hepes, pH 7.4, for 30 min on ice followed by centrifugation at 100,000×g for 15 min. After two washing steps at 4° C. in buffer B the membranes were resuspended in a buffer A (without BSA) and immediately used in the experiments. 20 μl aliquots of membranes were subjected to fluorescence microscopy similar to intact cells using a 20× objective.

A2A-CFP14/10-YFPC33 = assay: Intramolecular FRET (nFRET) in HEK293 cells transfected with A2A-CFP14/10-YFPC33; format: cell-based, human
Description: 12 h post transfection cells were replated on glass coverslips coated with poly-L-lysine and cultured for another 12-36 h.
Cells were continuously superfused with control solution (in mM: 140 NaCl; 5.4 KCl; 2 CaCl2; 1 mM MgCl2; 10 mM Glucose and 10 HEPES/NaOH pH 7.3) using a fast solenoid valve operated superfusion system ALA-VM8 (ALA Scientific Instruments).

α2AAR-cam [7] = target: T1, α2AAR-cam; assay: α2A-adrenergic receptor-activated whole cell GIRK currents in HEK293 cells; format: cell-based
Description: as §1
Electrophysiology. Whole cell GIRK currents were measured in HEK293 cells stably expressing 6 pmol/mg membrane protein α2AR-cam 20-28 h after transient transfection with GIRK1 and GIRK4 as described previously (Bünemann, (2001), loc. cit.). Membrane currents were recorded using an EPC 9 amplifier and Pulse software (HEKA Instruments) for voltage control, data acquisition and data evaluation. Experimental conditions such as patch pipettes, internal and external solutions, voltage-clamp protocol as well as the superfusion system were the same as described previously (Bünemann, (2001), loc. cit.).

PTH: parathyroid hormone, agonist of the PTH receptor
intermolecular FRET [1]: no FRET

CCNC(=O)[C@H]1O[C@@H](n2cnc3c(N)ncnc32)[C@H](O)[C@@H]1O [^3H-NECA]
radioligand binding compared with wild-type A2A receptor (A2A receptors): no significant difference

pertussis toxin
effect of inactivating Gi and Go on noradrenaline-induced FRET signal (α2AAR-cam [2]): did not affect

PTH7-34: truncated variant of PTH, a low affinity antagonist (LMHNLGKHLNSMERVEWLRKKLQDVHNF; Parathyroid hormone; UniProt P01270 38-65, looked up, fragment)
change in FRET signal (PTHR-cam): failed to induce a change in FRET

COC(=O)[C@@H]1[C@H]2C[C@H]3c4[nH]c5ccccc5c4CCN3C[C@@H]2CC[C@@H]1O [yohimbine]
conformational change of the receptor relative to agonist noradrenaline (α2AAR-cam [3]): opposite conformational changes

NC[C@H](O)c1ccc(O)c(O)c1 [noradrenaline]
Ki (α2AAR): 5000 ± 800 nM | Ki (α2AAR-cam [4]): 16700 ± 1400 nM | change of FRET signal, given alone (α2AAR-cam [2]): decline of the FRET signal; also recorded: rapid decrease of the FRET signal | maximal apparent rate constant kobs (α2AAR-cam [2]): ~26 s⁻¹ | time constant required for receptor activation (α2AAR-cam [2]): less than 40 ms | times faster than activation of chemically labelled purified β2-adrenergic receptors (α2AAR-cam [2]): more than 5000 times

COC(=O)[C@H]1[C@H]2C[C@H]3c4[nH]c5ccccc5c4CCN3C[C@H]2CC[C@@H]1O [rauwolscine]
conformational change of the receptor relative to agonist noradrenaline (α2AAR-cam [3]): opposite conformational changes

Nc1nc2c(ncn2[C@@H]2O[C@H](COP(=O)(O)OP(=O)(O)OP(O)(O)=S)[C@@H](O)[C@H]2O)c(=O)[nH]1 [GTPγS]
reduction of the binding of 5 nM [3H]UK14304 (α2AAR-cam [5]; GTPγS 10 μM, Go present): more than 50% | effect on FRET signal of saturating concentrations of UK14304 (α2AAR-cam [6]; GTPγS): did not affect | reduction of FRET signals caused by 5 nM UK14304 (α2AAR-cam [6]; GTPγS 10 μM, Go present): more than 50%

Nc1ncnc2c1ncn2[C@@H]1O[C@H](CO)[C@@H](O)[C@H]1O [adenosine]
time for nFRET to return to initial value after withdrawal of agonist (A2A-CFP14/10-YFPC33): 5 to 10 s

Brc1c(NC2=NCCN2)ccc2nccnc12 [UK14304]
decrease of binding affinity in presence of GTPγS (α2AAR-cam [5]; 10 μM GTPγS): ≈ 3 fold | Kd (α2AAR-cam [5]; exogenous Go (receptor:Go 1:100), without GTPγS): 3.4 ± 0.8 nM | Kd (α2AAR-cam [5]; exogenous Go, in presence of 10 μM GTPγS): 9.6 ± 1.1 nM

Clc1cccc(Cl)c1N=C1NCCN1 [clonidine]
FRET signal compared to the full agonist noradrenaline (α2AAR-cam [2]): three-fold smaller | effect of simultaneous addition on noradrenaline response (α2AAR-cam [2]): restored this response back to the partial response

Cc1ccc(N(CC2=NCCN2)c2cccc(O)c2)cc1 [phentolamine]
change of FRET signal, given alone (α2AAR-cam [2]): did not alter the FRET signal | effect on the noradrenaline-induced FRET signal (α2AAR-cam [2]): rapidly reverted the noradrenaline-induced signal

α2AAR-cam: mouse α2A-adrenergic receptor with YFP in third intracellular loop and CFP on C-terminus, SEQ ID NOS: 11 and 12
speed of GIRK current activation versus wild type α2AAR (α2AAR-cam [7]): not faster than the wild type
